Patent US9968649B2, “Vasopressin formulations for use in treatment of hypotension” (Par Pharmaceutical, Inc., priority 2015, dated 2018)
Values joined by “and” are separate entries in the source; they are usually repeats but may differ in a detail not shown here. Equal entries are not always repeated. Where two headings read alike, the source gives them in different places.

Tests used:
[1] = pH of stored samples (Example 8); assay type: physicochemical; details: inverted
Procedure: (§1) Experiments were also conducted on the same samples above over the course of the experiments to measure the amount of individual impurities in the samples, pH of the samples, chlorobutanol content, particulate matter, antimicrobial effectiveness, and bacterial endotoxin levels (TABLES 25-42). (NR=no reading; ND=not determined; UI=unidentified impurity).

[2] = Chlorobutanol content of stored samples (Example 8); assay type: physicochemical; details: inverted
Procedure: as §1

[3] = Particulate matter (USP) of stored samples (Example 8); assay type: physicochemical; details: inverted
Procedure: as §1

[4] = Effect of pH 3.5-4.5 on vasopressin formulations, four weeks at 25° C. or 40° C. (Example 9); assay type: physicochemical
Procedure: To test of effect of pH on vasopressin formulations, solutions containing 20 units/mL vasopressin, adjusted to pH 3.5, 3.6, 3.7, 3.8, 3.9, 4, 4.1, 4.2, 4.3, 4.4, or 4.5 with 10 mM acetate buffer, were prepared. One mL of each of the vasopressin formulations was then filled into 10 cc vials.
The vasopressin formulations were stored for four weeks at: (i) 25° C.; or (ii) 40° C., and the assay (% label claim; vasopressin remaining) and % total impurities after four weeks were measured using the methods described in EXAMPLE 1. FIGS. 11 and 12 below display the results of the experiments at 25° C. The results of the experiments at 40° C. are included in FIGS. 13 and 14.

[5] = assay type: physicochemical
[6] = test system: Chinese hamster ovary (CHO) cell; assay: In vitro Chinese hamster ovary (CHO) cell chromosome aberration test; assay type: cell-based
[7] = test system: patients with vasodilatory shock; details: cited from earlier work
[8] = cited from earlier work

With NC(=O)CC[C@@H]1NC(=O)[C@H](Cc2ccccc2)NC(=O)[C@H](Cc2ccc(O)cc2)NC(=O)[C@@H](N)CSSC[C@@H](C(=O)N2CCC[C@H]2C(=O)N[C@@H](CCCN=C(N)N)C(=O)NCC(N)=O)NC(=O)[C@H](CC(N)=O)NC1=O [Vasopressin, Cyclo (1-6) L-Cysteinyl-L-Tyrosyl-L-Phenylalanyl-L-Glutaminyl-L-Asparaginyl-L-Cysteinyl-L-Prolyl-L-Arginyl-L-Glycinamide] the pH ([1]; 5° C., 1 month) was 3.5 and 3.6, the pH ([1]; 5° C., 2 months) was 3.5 and 3.6 and the pH ([1]; 5° C., 3 months) was 3.5 and 3.6. The pH ([1]; 5° C., 6 months) was 3.5 and 3.6, the pH ([1]; 5° C., 9 months) was 3.5 and 3.6 and the pH ([1]; 5° C., 12 months) was 3.5 and 3.6. For the same molecule, the pH ([1]; 5° C., 18 months) was 3.8 and 3.6 and 3.5, the pH ([1]; 5° C., 24 months) was 3.5 and 3.6 and the pH ([1]; 5° C., Initial) was 3.5 and 3.6. The pH ([1]; 40° C., 1 month) was 3.3, the pH ([1]; 40° C., 2 months) was 3.2 and the pH ([1]; 40° C., 3 months) was 3.1. The pH ([1]; 40° C., Initial) was 3.5, the Chlorobutanol ([2]; 5° C., 1 month) was 0.49% w/v and 0.48% w/v and the Chlorobutanol ([2]; 5° C., 2 months) was 0.48% w/v and 0.47% w/v. The Chlorobutanol ([2]; 5° C., 3 months) was 0.48% w/v and 0.47% w/v, the Chlorobutanol ([2]; 5° C., 6 months) was 0.47% w/v and 0.48% w/v and the Chlorobutanol ([2]; 5° C., 9 months) was 0.48% w/v and 0.47% w/v. For the same molecule, the Chlorobutanol ([2]; 5° C., 12 months) was 0.48% w/v and 0.49% w/v, the Chlorobutanol ([2]; 5° C., 18 months) was 0.49% w/v and 0.48% w/v and the Chlorobutanol ([2]; 5° C., 24 months) was 0.49% w/v and 0.48% w/v. For the same molecule, the Chlorobutanol ([2]; 5° C., Initial) was 0.48% w/v and 0.47% w/v, the Chlorobutanol ([2]; 40° C., 1 month) was 0.48% w/v and the Chlorobutanol ([2]; 40° C., 2 months) was 0.50% w/v. For the same molecule, the Chlorobutanol ([2]; 40° C., 3 months) was 0.47% w/v, the Chlorobutanol ([2]; 40° C., Initial) was 0.49% w/v and the “Particulate Matter (USP) (≥10 μm)” value ([3]; 5° C., 1 month) was 1 and 2. For the same molecule, the “Particulate Matter (USP) (≥25 μm)” value ([3]; 5° C., 1 month) was 0, the “Particulate Matter (USP) (≥10 μm)” value ([3]; 5° C., 2 months) was 1 and the “Particulate Matter (USP) (≥25 μm)” value ([3]; 5° C., 2 months) was 0. The “Particulate Matter (USP) (≥10 μm)” value ([3]; 5° C., 3 months) was 1 and 2, the “Particulate Matter (USP) (≥25 μm)” value ([3]; 5° C., 3 months) was 0 and the “Particulate Matter (USP) (≥10 μm)” value ([3]; 5° C., 6 months) was 2 and 1. The “Particulate Matter (USP) (≥25 μm)” value ([3]; 5° C., 6 months) was 0, the “Particulate Matter (USP) (≥25 μm)” value ([3]; 5° C., 9 months) was 0 and the “Particulate Matter (USP) (≥10 μm)” value ([3]; 5° C., 12 months) was 2. The “Particulate Matter (USP) (≥25 μm)” value ([3]; 5° C., 12 months) was 0, the “Particulate Matter (USP) (≥25 μm)” value ([3]; 5° C., 18 months) was 0 and the “Particulate Matter (USP) (≥25 μm)” value ([3]; 5° C., 24 months) was 0. The “Particulate Matter (USP) (≥25 μm)” value ([3]; 5° C., Initial) was 0, the “Particulate Matter (USP) (≥10 μm)” value ([3]; 40° C., 1 month) was 1 and the “Particulate Matter (USP) (≥25 μm)” value ([3]; 40° C., 1 month) was 0. The “Particulate Matter (USP) (≥10 μm)” value ([3]; 40° C., 2 months) was 1, the “Particulate Matter (USP) (≥25 μm)” value ([3]; 40° C., 2 months) was 0 and the “Particulate Matter (USP) (≥10 μm)” value ([3]; 40° C., 3 months) was 1. For the same molecule, the “Particulate Matter (USP) (≥25 μm)” value ([3]; 40° C., 3 months) was 0, the “Particulate Matter (USP) (≥10 μm)” value ([3]; 40° C., Initial) was 1 and the “Particulate Matter (USP) (≥25 μm)” value ([3]; 40° C., Initial) was 0. The “pH providing the highest stability” value ([4]; 25° C.) was 3.7, the “pH with lowest level of impurities within pH 3.6 to 3.8” value ([4]; 25° C.) was 3.8 and the “pH providing the highest stability” value ([4]; 40° C.) was 3.6. The “pH with lowest level of impurities within pH 3.6 to 3.8” value ([4]; 40° C.) was 3.8, the “pH with lowest level of impurities within pH 3.6 to 3.8” value ([5]; pH 3.6) was 3.8 and the “pH with lowest level of impurities within pH 3.7 to 3.8” value ([5]; pH 3.7) was 3.8. The “CHO cell chromosome aberration test result” value [6] was “negative”, the “time for pressor effect to fade” value ([7]; after stopping the infusion) was no more than 20 min and the “time of peak pressor effect” value ([7]; infusion of exogenous vasopressin) was no more than 15 min. The “hemodynamic effect at therapeutic doses” value ([7]; patients with vasodilatory shock) was “increases systemic vascular resistance and mean arterial blood pressure”, the “tachyphylaxis or tolerance to the pressor effect” value ([7]; patients) was “no evidence for tachyphylaxis or tolerance” and the “dose excreted unchanged in urine” value ([8]; human, in vivo) was “about 6%”. The apparent half-life ([8]; infusion rates 0.01-0.1 units/minute) was no more than 10 min.
